The text below walks through data of patent US20220125791A1, “NOVEL DEVICES” (INTRA-CELLULAR THERAPIES, INC., priority 2019, published 2022).

SMILES strings stand for the structures. Read-outs that look alike come from different tables or passages of the source.

The series in a line: Compound 1 in plasma and ocular tissue following topical administration. Type of series: in vivo, male hypertensive New Zealand White Rabbit. The conditions noted are these: for AUC(0-t): male, New Zealand White, rabbit, topical or ocular, topical administration, 5% (2-Hydroxypropyl)-β-cyclodextrin in PBS pH 7.4, LC-MS/MS. The method, then: The goal of this study was to determine the presence/absence of Compound 1 in male hypertensive New Zealand White Rabbit plasma and ocular tissue following a topical administration. For the study, Compound 1 was formulated with 5% (2-Hydroxypropyl)-β-cyclodextrin in phosphate-buffered saline pH 7.4 at 60 μg/eye. Plasma, Cornea, Conjunctiva, Aqueous Humor (AH), and Iris Ciliary Body (ICB) samples were collected for analysis of the concentrations of Compound 1 using LC-MS/MS methods.

For `CN1C(=O)c2c(nn(Cc3ccc(-c4ccccn4)cc3)c2Nc2ccccc2)N2C1=N[C@@H]1CCC[C@@H]12` [Compound 1], the AUC(0-t) is, setting by setting: (60 μg/eye, aqueous humor, read-out: AUC0-24hr in the aqueous humor) 866 ng·h/mL; (60 μg/eye, plasma, read-out: AUC0-24hr in the plasma) 46.3 ng·h/mL. Further, where the note is “ocular tissue upon topical administration, 60 μg/eye (FIG. 1)”, the “availability in ocular tissue” value is listed as “rapid availability”. Under “plasma, 1 hour after topical administration, 60 μg/eye”, the presence in plasma entry was “present”.
